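In this assay, cells in 96-well plates receive the compound at five concentrations for 48 hours. Endpoints are linearly interpolated between the surrounding concentrations. Here, GI50 denotes the concentration required for 50% inhibition of growth. The concentration for full growth arrest is given as TGI.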
What was measured:
Assay in all cases: DTP human tumour cell line panel, 48 h
MCF7 breast = tested on: MCF7 breast
IGROV1 ovarian = tested on: IGROV1 ovarian
HL-60(TB) leukemia = tested on: HL-60(TB) leukemia
HS 578T breast = tested on: HS 578T breast
RPMI-8226 leukemia = tested on: RPMI-8226 leukemia
MDA-MB-435 = tested on: MDA-MB-435
K-562 leukemia = tested on: K-562 leukemia
ACHN renal = tested on: ACHN renal
OVCAR-5 ovarian = tested on: OVCAR-5 ovarian
UACC-62 melanoma = tested on: UACC-62 melanoma
SNB-19 CNS = tested on: SNB-19 CNS
NCI-H23 lung = tested on: NCI-H23 lung
786-0 renal = tested on: 786-0 renal
RXF 393 renal = tested on: RXF 393 renal
EKVX NSCLC = tested on: EKVX NSCLC
HCT-116 colon = tested on: HCT-116 colon
OVCAR-4 ovarian = tested on: OVCAR-4 ovarian
A498 renal = tested on: A498 renal
T-47D breast = tested on: T-47D breast
SK-MEL-5 melanoma = tested on: SK-MEL-5 melanoma
CCRF-CEM leukemia = tested on: CCRF-CEM leukemia
M14 melanoma = tested on: M14 melanoma
COLO 205 colon = tested on: COLO 205 colon
SNB-75 CNS = tested on: SNB-75 CNS
HOP-62 NSCLC = tested on: HOP-62 NSCLC
HT29 colon = tested on: HT29 colon
UACC-257 melanoma = tested on: UACC-257 melanoma
OVCAR-8 ovarian = tested on: OVCAR-8 ovarian
NCI-H460 lung = tested on: NCI-H460 lung
SF-295 CNS = tested on: SF-295 CNS
SF-268 CNS = tested on: SF-268 CNS
KM12 colon = tested on: KM12 colon
SK-OV-3 ovarian = tested on: SK-OV-3 ovarian
SR leukemia = tested on: SR leukemia
SK-MEL-28 melanoma = tested on: SK-MEL-28 melanoma
MOLT-4 leukemia = tested on: MOLT-4 leukemia
UO-31 renal = tested on: UO-31 renal
CAKI-1 renal = tested on: CAKI-1 renal
LOX IMVI melanoma = tested on: LOX IMVI melanoma
MDA-MB-231 breast = tested on: MDA-MB-231 breast
NCI-H522 lung = tested on: NCI-H522 lung
SF-539 CNS = tested on: SF-539 CNS
PC-3 prostate = tested on: PC-3 prostate
NCI/ADR-RES ovarian = tested on: NCI/ADR-RES ovarian
TK-10 renal = tested on: TK-10 renal
MALME-3M melanoma = tested on: MALME-3M melanoma
HOP-92 NSCLC = tested on: HOP-92 NSCLC
NCI-H226 lung = tested on: NCI-H226 lung
HCC-2998 colon = tested on: HCC-2998 colon
U251 CNS = tested on: U251 CNS
OVCAR-3 ovarian = tested on: OVCAR-3 ovarian
DU-145 prostate = tested on: DU-145 prostate
SW-620 colon = tested on: SW-620 colon
HCT-15 colon = tested on: HCT-15 colon
SK-MEL-2 melanoma = tested on: SK-MEL-2 melanoma
SN12C renal = tested on: SN12C renal
BT-549 breast = tested on: BT-549 breast
A549 NSCLC = tested on: A549 NSCLC

Compound: Clc1cnc(Nc2ccc(OCCN3CCCC3)cc2)nc1NCc1ccco1
- GI50 (MCF7 breast): 1510 nM
- TGI (MCF7 breast): 10.2 µM
- GI50 (IGROV1 ovarian): 2500 nM
- TGI (IGROV1 ovarian): 12.8 µM
- GI50 (HL-60(TB) leukemia): 1030 nM
- TGI (HL-60(TB) leukemia): 5.01 µM
- GI50 (HS 578T breast): 1390 nM
- TGI (HS 578T breast): 5.18 µM
- GI50 (RPMI-8226 leukemia): 2250 nM
- TGI (RPMI-8226 leukemia): 5.49 µM
- GI50 (MDA-MB-435): 2730 nM
- TGI (MDA-MB-435): 11.5 µM
- GI50 (K-562 leukemia): 3.19 µM
- TGI (K-562 leukemia): 52.6 µM
- GI50 (ACHN renal): 2370 nM
- TGI (ACHN renal): 26.4 µM
- GI50 (OVCAR-5 ovarian): 1950 nM
- TGI (OVCAR-5 ovarian): > 100 µM
- GI50 (UACC-62 melanoma): 1830 nM
- TGI (UACC-62 melanoma): 3.73 µM
- GI50 (SNB-19 CNS): 3.51 µM
- TGI (SNB-19 CNS): 13.5 µM
- GI50 (NCI-H23 lung): 1840 nM
- TGI (NCI-H23 lung): 5.75 µM
- GI50 (786-0 renal): 3.15 µM
- TGI (786-0 renal): 13.3 µM
- GI50 (RXF 393 renal): 1250 nM
- TGI (RXF 393 renal): 3.24 µM
- GI50 (EKVX NSCLC): 2100 nM
- TGI (EKVX NSCLC): 6.47 µM
- GI50 (HCT-116 colon): 2560 nM
- TGI (HCT-116 colon): 28.6 µM
- GI50 (OVCAR-4 ovarian): 2860 nM
- TGI (OVCAR-4 ovarian): 13.9 µM
- GI50 (A498 renal): 1450 nM
- TGI (A498 renal): 3.88 µM
- GI50 (T-47D breast): 3.14 µM
- TGI (T-47D breast): 10.6 µM
- GI50 (SK-MEL-5 melanoma): 1620 nM
- TGI (SK-MEL-5 melanoma): 3.42 µM
- GI50 (CCRF-CEM leukemia): 2540 nM
- TGI (CCRF-CEM leukemia): 9.5 µM
- GI50 (M14 melanoma): 2460 nM
- TGI (M14 melanoma): 9.55 µM
- GI50 (COLO 205 colon): 1710 nM
- TGI (COLO 205 colon): 4.05 µM
- GI50 (SNB-75 CNS): 1910 nM
- TGI (SNB-75 CNS): 4.27 µM
- GI50 (HOP-62 NSCLC): 2240 nM
- TGI (HOP-62 NSCLC): 6.58 µM
- GI50 (HT29 colon): 2190 nM
- TGI (HT29 colon): 9.18 µM
- GI50 (UACC-257 melanoma): 2440 nM
- TGI (UACC-257 melanoma): 6.32 µM
- GI50 (OVCAR-8 ovarian): 3.54 µM
- TGI (OVCAR-8 ovarian): 13.7 µM
- GI50 (NCI-H460 lung): 2040 nM
- TGI (NCI-H460 lung): 5.36 µM
- GI50 (SF-295 CNS): 2180 nM
- TGI (SF-295 CNS): 6.63 µM
- GI50 (SF-268 CNS): 2330 nM
- TGI (SF-268 CNS): 6.47 µM
- GI50 (KM12 colon): 643 nM
- TGI (KM12 colon): 10.1 µM
- GI50 (SK-OV-3 ovarian): 3.62 µM
- TGI (SK-OV-3 ovarian): 34.1 µM
- GI50 (SR leukemia): 1400 nM
- TGI (SR leukemia): 6.61 µM
- GI50 (SK-MEL-28 melanoma): 3.29 µM
- TGI (SK-MEL-28 melanoma): 10.7 µM
- GI50 (MOLT-4 leukemia): 1860 nM
- TGI (MOLT-4 leukemia): 8.4 µM
- GI50 (UO-31 renal): 1870 nM
- TGI (UO-31 renal): 11.6 µM
- GI50 (CAKI-1 renal): 1630 nM
- TGI (CAKI-1 renal): 26.6 µM
- GI50 (LOX IMVI melanoma): 1160 nM
- TGI (LOX IMVI melanoma): 4.26 µM
- GI50 (MDA-MB-231 breast): 2480 nM
- TGI (MDA-MB-231 breast): 13.5 µM
- GI50 (NCI-H522 lung): 1750 nM
- TGI (NCI-H522 lung): 3.96 µM
- GI50 (SF-539 CNS): 1670 nM
- TGI (SF-539 CNS): 3.64 µM
- GI50 (PC-3 prostate): 2660 nM
- TGI (PC-3 prostate): 8.53 µM
- GI50 (NCI/ADR-RES ovarian): 3.15 µM
- TGI (NCI/ADR-RES ovarian): 9.53 µM
- GI50 (TK-10 renal): 2280 nM
- TGI (TK-10 renal): 11.8 µM
- GI50 (MALME-3M melanoma): 2100 nM
- TGI (MALME-3M melanoma): 5.79 µM
- GI50 (HOP-92 NSCLC): 1140 nM
- TGI (HOP-92 NSCLC): 6.6 µM
- GI50 (NCI-H226 lung): 671 nM
- TGI (NCI-H226 lung): 11.3 µM
- GI50 (HCC-2998 colon): 2920 nM
- TGI (HCC-2998 colon): 9.59 µM
- GI50 (U251 CNS): 2810 nM
- TGI (U251 CNS): 11.4 µM
- GI50 (OVCAR-3 ovarian): 3.01 µM
- TGI (OVCAR-3 ovarian): 9.75 µM
- GI50 (DU-145 prostate): 3.43 µM
- TGI (DU-145 prostate): > 100 µM
- GI50 (SW-620 colon): 2260 nM
- TGI (SW-620 colon): 13 µM
- GI50 (HCT-15 colon): 2720 nM
- TGI (HCT-15 colon): 11.8 µM
- GI50 (SK-MEL-2 melanoma): 1800 nM
- TGI (SK-MEL-2 melanoma): 3.48 µM
- GI50 (SN12C renal): 2420 nM
- TGI (SN12C renal): 10.6 µM
- GI50 (BT-549 breast): 2290 nM
- TGI (BT-549 breast): 7.47 µM
- GI50 (A549 NSCLC): 2560 nM
- TGI (A549 NSCLC): 16.3 µM

Source: PubChem BioAssay (NCI)
